Measured values taken from ChEMBL document CHEMBL4507256 (2021).

Legend:
[1] = molecular target: Serine/threonine-protein kinase VRK2 (Homo sapiens) (UniProt Q86Y07); conditions: Compound concentration 1000.0 nM
[2] = molecular target: Serine/threonine-protein kinase 36 (Homo sapiens) (UniProt Q9NRP7); conditions: Compound concentration 1000.0 nM
[3] = molecular target: Myosin light chain kinase (Homo sapiens) (UniProt Q32MK0); conditions: Compound concentration 1000.0 nM
[4] = molecular target: Dual specificity testis-specific protein kinase 1 (Homo sapiens) (UniProt Q15569); conditions: Compound concentration 1000.0 nM
[5] = molecular target: 5-hydroxytryptamine receptor 1D (Homo sapiens) (UniProt P28221); conditions: Compound concentration 10.0 uM
5-hydroxytryptamine receptor 1D (Homo sapiens), sequence (P28221 whole entry): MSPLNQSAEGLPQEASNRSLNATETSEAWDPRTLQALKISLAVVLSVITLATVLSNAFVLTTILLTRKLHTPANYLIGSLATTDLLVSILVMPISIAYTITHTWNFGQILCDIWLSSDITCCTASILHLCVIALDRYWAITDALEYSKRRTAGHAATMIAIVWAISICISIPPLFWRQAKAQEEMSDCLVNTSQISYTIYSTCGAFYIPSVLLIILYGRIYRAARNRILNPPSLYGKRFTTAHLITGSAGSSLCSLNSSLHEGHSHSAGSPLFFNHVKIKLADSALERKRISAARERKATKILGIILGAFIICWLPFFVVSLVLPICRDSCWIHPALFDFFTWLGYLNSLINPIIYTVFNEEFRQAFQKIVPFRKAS

[6] = molecular target: 5-hydroxytryptamine receptor 5A (Homo sapiens) (UniProt P47898); conditions: Compound concentration 10.0 uM
[7] = molecular target: Protein kinase C eta type (Homo sapiens) (UniProt P24723); conditions: Compound concentration 1000.0 nM
[8] = molecular target: Serine/threonine-protein kinase B-raf (Homo sapiens) (UniProt P15056); conditions: Compound concentration 1000.0 nM
[9] = molecular target: Mitogen-activated protein kinase kinase kinase 19 (Homo sapiens) (UniProt Q56UN5); conditions: Compound concentration 1000.0 nM
[10] = molecular target: LIM domain kinase 2 (Homo sapiens) (UniProt P53671); conditions: Compound concentration 1000.0 nM
[11] = molecular target: Serine/threonine-protein kinase Nek6 (Homo sapiens) (UniProt Q9HC98); conditions: Compound concentration 1000.0 nM
[12] = molecular target: Serine/threonine-protein kinase MRCK beta (Homo sapiens) (UniProt Q9Y5S2); conditions: Compound concentration 1000.0 nM
[13] = molecular target: Serine/threonine-protein kinase PAK 4 (Homo sapiens) (UniProt O96013); conditions: Compound concentration 1000.0 nM
[14] = molecular target: ALK tyrosine kinase receptor (Homo sapiens) (UniProt Q9UM73); conditions: Compound concentration 1000.0 nM
[15] = molecular target: Non-receptor tyrosine-protein kinase TNK1 (Homo sapiens) (UniProt Q13470); conditions: Compound concentration 1000.0 nM
[16] = molecular target: Hepatocyte growth factor receptor (Homo sapiens) (UniProt P08581); conditions: Compound concentration 1000.0 nM
[17] = molecular target: Ephrin type-A receptor 4 (Homo sapiens) (UniProt P54764); conditions: Compound concentration 1000.0 nM
Ephrin type-A receptor 4 (Homo sapiens), sequence (P54764 whole entry): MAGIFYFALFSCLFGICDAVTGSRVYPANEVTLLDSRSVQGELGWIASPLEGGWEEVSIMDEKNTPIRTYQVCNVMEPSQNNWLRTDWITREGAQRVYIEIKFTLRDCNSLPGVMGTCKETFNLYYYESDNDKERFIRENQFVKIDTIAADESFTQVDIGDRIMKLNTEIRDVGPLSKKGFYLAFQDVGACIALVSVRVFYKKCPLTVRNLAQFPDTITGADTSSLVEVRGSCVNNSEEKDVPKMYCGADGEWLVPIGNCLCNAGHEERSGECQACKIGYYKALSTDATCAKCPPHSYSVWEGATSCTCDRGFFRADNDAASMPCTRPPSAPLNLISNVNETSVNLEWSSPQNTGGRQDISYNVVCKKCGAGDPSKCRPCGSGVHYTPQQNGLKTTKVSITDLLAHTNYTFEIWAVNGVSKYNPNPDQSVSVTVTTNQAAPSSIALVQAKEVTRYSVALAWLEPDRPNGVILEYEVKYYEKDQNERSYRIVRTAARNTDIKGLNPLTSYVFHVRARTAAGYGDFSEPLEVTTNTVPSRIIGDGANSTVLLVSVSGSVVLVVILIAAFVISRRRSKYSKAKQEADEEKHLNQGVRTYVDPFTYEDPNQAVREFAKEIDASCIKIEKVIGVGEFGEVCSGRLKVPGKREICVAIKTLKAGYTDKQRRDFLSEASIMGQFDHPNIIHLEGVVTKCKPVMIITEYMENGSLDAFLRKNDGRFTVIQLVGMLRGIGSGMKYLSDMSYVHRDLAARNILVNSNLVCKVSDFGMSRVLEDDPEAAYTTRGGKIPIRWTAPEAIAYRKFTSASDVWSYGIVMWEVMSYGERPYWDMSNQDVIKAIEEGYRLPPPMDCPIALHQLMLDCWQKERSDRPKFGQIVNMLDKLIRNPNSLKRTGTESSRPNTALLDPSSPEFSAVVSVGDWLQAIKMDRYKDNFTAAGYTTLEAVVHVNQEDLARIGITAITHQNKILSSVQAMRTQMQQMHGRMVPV

[18] = molecular target: Mitogen-activated protein kinase 14 (Homo sapiens) (UniProt Q16539); conditions: Compound concentration 1000.0 nM
[19] = molecular target: Activin receptor type-2A (Homo sapiens) (UniProt P27037); conditions: Compound concentration 1000.0 nM
[20] = tested on: Mast/stem cell growth factor receptor Kit (Homo sapiens), P10721 [D816H]; conditions: Compound concentration 1000.0 nM
[21] = tested on: Receptor-type tyrosine-protein kinase FLT3 (Homo sapiens), P36888 [D835H]; conditions: Compound concentration 1000.0 nM
[22] = molecular target: Vascular endothelial growth factor receptor 1 (Homo sapiens) (UniProt P17948); conditions: Compound concentration 1000.0 nM
[23] = molecular target: Cyclin-dependent kinase 2 homolog (Plasmodium falciparum (isolate 3D7)) (UniProt P61075); conditions: Compound concentration 1000.0 nM
Cyclin-dependent kinase 2 homolog (Plasmodium falciparum (isolate 3D7)), sequence (P61075 whole entry): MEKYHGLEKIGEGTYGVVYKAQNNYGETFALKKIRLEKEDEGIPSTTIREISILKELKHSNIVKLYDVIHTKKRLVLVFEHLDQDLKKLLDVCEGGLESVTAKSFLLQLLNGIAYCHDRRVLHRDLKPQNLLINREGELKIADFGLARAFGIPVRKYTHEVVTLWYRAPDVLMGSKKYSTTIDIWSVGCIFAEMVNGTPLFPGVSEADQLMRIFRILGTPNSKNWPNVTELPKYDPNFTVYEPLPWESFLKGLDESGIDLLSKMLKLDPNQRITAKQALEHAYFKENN

[24] = molecular target: Myotonin-protein kinase (Homo sapiens) (UniProt Q09013); conditions: Compound concentration 1000.0 nM
[25] = molecular target: Focal adhesion kinase 1 (Homo sapiens) (UniProt Q05397); conditions: Compound concentration 1000.0 nM
[26] = molecular target: Ribosomal protein S6 kinase alpha-1 (Homo sapiens) (UniProt Q15418); conditions: Compound concentration 1000.0 nM
Ribosomal protein S6 kinase alpha-1 (Homo sapiens), sequence (Q15418 whole entry): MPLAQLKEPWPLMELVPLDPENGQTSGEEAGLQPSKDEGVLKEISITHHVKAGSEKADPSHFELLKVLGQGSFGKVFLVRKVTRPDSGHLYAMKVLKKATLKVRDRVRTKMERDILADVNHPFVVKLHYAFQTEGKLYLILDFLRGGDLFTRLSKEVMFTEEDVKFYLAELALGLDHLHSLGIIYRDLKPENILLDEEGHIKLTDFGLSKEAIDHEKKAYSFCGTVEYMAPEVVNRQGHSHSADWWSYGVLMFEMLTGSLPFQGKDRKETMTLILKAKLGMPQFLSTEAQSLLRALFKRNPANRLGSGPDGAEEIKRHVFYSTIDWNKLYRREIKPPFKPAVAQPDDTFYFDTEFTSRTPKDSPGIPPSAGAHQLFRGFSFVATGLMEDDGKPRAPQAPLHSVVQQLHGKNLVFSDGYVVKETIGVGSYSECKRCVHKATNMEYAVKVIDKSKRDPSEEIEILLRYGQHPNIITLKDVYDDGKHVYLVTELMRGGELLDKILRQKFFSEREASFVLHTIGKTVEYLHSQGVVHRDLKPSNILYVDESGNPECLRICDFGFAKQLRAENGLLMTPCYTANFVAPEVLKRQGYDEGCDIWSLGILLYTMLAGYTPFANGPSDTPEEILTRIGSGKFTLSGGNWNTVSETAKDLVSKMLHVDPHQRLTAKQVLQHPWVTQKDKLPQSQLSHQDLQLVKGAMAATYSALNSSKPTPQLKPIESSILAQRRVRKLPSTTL

[27] = molecular target: G protein-coupled receptor kinase 3 (Homo sapiens) (UniProt P35626); conditions: Compound concentration 1000.0 nM
G protein-coupled receptor kinase 3 (Homo sapiens), sequence (P35626 whole entry): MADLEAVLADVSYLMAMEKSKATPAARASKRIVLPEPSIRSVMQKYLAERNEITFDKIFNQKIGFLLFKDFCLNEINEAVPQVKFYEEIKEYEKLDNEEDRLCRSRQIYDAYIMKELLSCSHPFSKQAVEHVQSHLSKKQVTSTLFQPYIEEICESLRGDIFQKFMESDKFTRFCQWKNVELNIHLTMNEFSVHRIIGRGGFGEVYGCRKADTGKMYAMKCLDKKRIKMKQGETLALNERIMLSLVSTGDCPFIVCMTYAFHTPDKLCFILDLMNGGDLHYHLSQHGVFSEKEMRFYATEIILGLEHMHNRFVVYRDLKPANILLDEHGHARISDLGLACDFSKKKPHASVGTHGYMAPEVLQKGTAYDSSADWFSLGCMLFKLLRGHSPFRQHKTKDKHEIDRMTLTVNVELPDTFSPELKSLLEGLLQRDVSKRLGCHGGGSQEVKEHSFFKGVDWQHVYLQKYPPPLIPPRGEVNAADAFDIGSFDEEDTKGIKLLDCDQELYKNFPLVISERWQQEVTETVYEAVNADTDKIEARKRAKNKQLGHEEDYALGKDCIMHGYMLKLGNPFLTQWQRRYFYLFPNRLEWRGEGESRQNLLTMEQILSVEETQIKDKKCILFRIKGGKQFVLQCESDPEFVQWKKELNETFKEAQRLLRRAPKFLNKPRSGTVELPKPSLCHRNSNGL

[28] = molecular target: Cyclin-dependent kinase 14 (Homo sapiens) (UniProt O94921); conditions: Compound concentration 1000.0 nM
[29] = molecular target: Serine/threonine-protein kinase pim-3 (Homo sapiens) (UniProt Q86V86); conditions: Compound concentration 1000.0 nM
[30] = molecular target: Receptor-interacting serine/threonine-protein kinase 2 (Homo sapiens) (UniProt O43353); conditions: Compound concentration 1000.0 nM
[31] = molecular target: Tyrosine-protein kinase BTK (Homo sapiens) (UniProt Q06187); conditions: Compound concentration 1000.0 nM
[32] = molecular target: Glycogen synthase kinase-3 alpha (Homo sapiens) (UniProt P49840); conditions: Compound concentration 1000.0 nM
[33] = molecular target: NUAK family SNF1-like kinase 2 (Homo sapiens) (UniProt Q9H093); conditions: Compound concentration 1000.0 nM
[34] = tested on: Receptor-type tyrosine-protein kinase FLT3 (Homo sapiens), P36888 [D835V]; conditions: Compound concentration 1000.0 nM
[35] = molecular target: Rhodopsin kinase GRK1 (Homo sapiens) (UniProt Q15835); conditions: Compound concentration 1000.0 nM
[36] = molecular target: Casein kinase I isoform alpha-like (Homo sapiens) (UniProt Q8N752); conditions: Compound concentration 1000.0 nM
[37] = molecular target: TGF-beta receptor type-1 (Homo sapiens) (UniProt P36897); conditions: Compound concentration 1000.0 nM
TGF-beta receptor type-1 (Homo sapiens), sequence (P36897 whole entry): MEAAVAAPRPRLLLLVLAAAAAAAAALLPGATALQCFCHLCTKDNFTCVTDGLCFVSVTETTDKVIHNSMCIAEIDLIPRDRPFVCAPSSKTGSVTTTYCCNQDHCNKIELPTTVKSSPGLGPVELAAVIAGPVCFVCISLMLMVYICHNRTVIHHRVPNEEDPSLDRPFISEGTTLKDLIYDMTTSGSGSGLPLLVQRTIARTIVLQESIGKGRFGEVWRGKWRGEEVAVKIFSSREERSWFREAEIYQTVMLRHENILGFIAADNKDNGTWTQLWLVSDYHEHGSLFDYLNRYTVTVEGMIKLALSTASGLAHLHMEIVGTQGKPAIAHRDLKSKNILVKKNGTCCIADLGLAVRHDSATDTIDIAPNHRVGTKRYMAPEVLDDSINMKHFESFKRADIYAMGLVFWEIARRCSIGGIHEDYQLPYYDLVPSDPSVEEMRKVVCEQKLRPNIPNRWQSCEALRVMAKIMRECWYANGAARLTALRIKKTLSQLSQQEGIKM

[38] = molecular target: Serine/threonine-protein kinase Nek2 (Homo sapiens) (UniProt P51955); conditions: Compound concentration 1000.0 nM
[39] = molecular target: Serine/threonine-protein kinase PAK 6 (Homo sapiens) (UniProt Q9NQU5); conditions: Compound concentration 1000.0 nM
[40] = molecular target: Mitogen-activated protein kinase kinase kinase 15 (Homo sapiens) (UniProt Q6ZN16); conditions: Compound concentration 1000.0 nM
[41] = molecular target: TGF-beta receptor type-2 (Homo sapiens) (UniProt P37173); conditions: Compound concentration 1000.0 nM
[42] = molecular target: Tyrosine-protein kinase JAK3 (Homo sapiens) (UniProt P52333); conditions: Compound concentration 1000.0 nM
[43] = molecular target: SNF-related serine/threonine-protein kinase (Homo sapiens) (UniProt Q9NRH2); conditions: Compound concentration 1000.0 nM
[44] = molecular target: Serine/threonine-protein kinase PLK1 (Homo sapiens) (UniProt P53350); conditions: Compound concentration 1000.0 nM
[45] = molecular target: Serine/threonine-protein kinase 32A (Homo sapiens) (UniProt Q8WU08); conditions: Compound concentration 1000.0 nM
[46] = tested on: Epidermal growth factor receptor (Homo sapiens), P00533 [UNDEFINED MUTATION]; conditions: Compound concentration 1000.0 nM

Myosin light chain kinase (Homo sapiens), sequence (Q32MK0 whole entry): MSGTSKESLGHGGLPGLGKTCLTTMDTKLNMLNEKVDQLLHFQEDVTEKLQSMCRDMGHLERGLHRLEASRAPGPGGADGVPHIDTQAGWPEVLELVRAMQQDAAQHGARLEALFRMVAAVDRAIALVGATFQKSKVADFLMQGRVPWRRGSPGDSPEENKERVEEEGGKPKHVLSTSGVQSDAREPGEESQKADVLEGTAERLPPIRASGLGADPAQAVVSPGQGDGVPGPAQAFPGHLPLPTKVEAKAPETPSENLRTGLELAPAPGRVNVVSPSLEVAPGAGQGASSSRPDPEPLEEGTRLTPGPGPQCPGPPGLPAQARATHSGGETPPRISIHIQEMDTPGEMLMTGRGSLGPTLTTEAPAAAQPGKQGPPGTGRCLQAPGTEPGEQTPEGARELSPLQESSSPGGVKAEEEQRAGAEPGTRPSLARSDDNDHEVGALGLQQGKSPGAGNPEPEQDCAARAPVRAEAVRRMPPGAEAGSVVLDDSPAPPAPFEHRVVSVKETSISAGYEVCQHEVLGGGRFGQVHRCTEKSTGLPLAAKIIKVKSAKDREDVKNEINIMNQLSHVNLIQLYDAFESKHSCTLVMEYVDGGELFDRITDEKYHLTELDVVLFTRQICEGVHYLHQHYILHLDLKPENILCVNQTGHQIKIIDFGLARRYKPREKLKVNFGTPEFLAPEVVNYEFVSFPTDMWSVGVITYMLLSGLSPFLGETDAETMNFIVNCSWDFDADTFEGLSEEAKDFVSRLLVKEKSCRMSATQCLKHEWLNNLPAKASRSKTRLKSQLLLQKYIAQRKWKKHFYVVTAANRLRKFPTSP
Serine/threonine-protein kinase VRK2 (Homo sapiens), sequence (Q86Y07 whole entry): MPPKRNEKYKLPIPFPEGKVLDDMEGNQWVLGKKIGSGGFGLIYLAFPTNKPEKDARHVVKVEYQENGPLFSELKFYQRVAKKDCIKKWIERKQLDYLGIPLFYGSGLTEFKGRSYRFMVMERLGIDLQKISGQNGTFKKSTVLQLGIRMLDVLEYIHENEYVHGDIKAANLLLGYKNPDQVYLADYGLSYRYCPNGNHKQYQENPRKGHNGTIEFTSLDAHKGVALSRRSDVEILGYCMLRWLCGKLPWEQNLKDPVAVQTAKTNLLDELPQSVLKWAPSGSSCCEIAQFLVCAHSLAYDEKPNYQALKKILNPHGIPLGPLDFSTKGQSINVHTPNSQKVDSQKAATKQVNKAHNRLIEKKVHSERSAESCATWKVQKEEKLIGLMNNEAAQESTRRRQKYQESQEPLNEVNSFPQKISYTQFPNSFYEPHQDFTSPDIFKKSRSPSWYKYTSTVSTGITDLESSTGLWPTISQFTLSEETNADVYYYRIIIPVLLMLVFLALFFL

CCC(=N\O)/C(C)=C/c1ccc(F)c(C)c1 [A-226]
inactive: residual activity [1] 100% | residual activity [2] 100% | residual activity [3] 100% | residual activity [4] 73% | inhibition [5] 4.54% | inhibition [6] -3.24% | residual activity [7] 68% | residual activity [8] 79% | residual activity [9] 98% | residual activity [10] 90% | residual activity [11] 99% | residual activity [12] 69% | residual activity [13] 76% | residual activity [14] 97% | residual activity [15] 100% | residual activity [16] 100% | residual activity [17] 100% | residual activity [18] 100% | residual activity [19] 100% | residual activity [20] 100% | residual activity [21] 89% | residual activity [22] 100% | residual activity [23] 100% | residual activity [24] 72% | residual activity [25] 100% | residual activity [26] 96% | residual activity [27] 100% | residual activity [28] 92% | residual activity [29] 80% | residual activity [30] 65% | residual activity [31] 100% | residual activity [32] 100% | residual activity [33] 100% | residual activity [34] 100% | residual activity [35] 88% | residual activity [36] 83% | residual activity [37] 88% | residual activity [38] 100% | residual activity [39] 100% | residual activity [40] 69% | residual activity [41] 97% | residual activity [42] 94% | residual activity [43] 100% | residual activity [44] 82% | residual activity [45] 100% | residual activity [46] 71%

CCC(=N\O)/C(C)=C/c1ccc(F)cc1 [A-079]
inactive: residual activity [1] 74% | residual activity [2] 84% | residual activity [3] 86% | residual activity [4] 82% | inhibition [5] 13.9% | inhibition [6] 3.01% | residual activity [7] 100% | residual activity [8] 87% | residual activity [9] 66% | residual activity [10] 80% | residual activity [11] 87% | residual activity [12] 100% | residual activity [13] 100% | residual activity [14] 87% | residual activity [15] 66% | residual activity [16] 88% | residual activity [17] 74% | residual activity [18] 100% | residual activity [19] 100% | residual activity [20] 65% | residual activity [21] 100% | residual activity [22] 87% | residual activity [23] 84% | residual activity [24] 88% | residual activity [25] 82% | residual activity [26] 100% | residual activity [27] 92% | residual activity [28] 91% | residual activity [29] 96% | residual activity [30] 91% | residual activity [31] 78% | residual activity [32] 100% | residual activity [33] 73% | residual activity [34] 100% | residual activity [35] 79% | residual activity [36] 78% | residual activity [37] 85% | residual activity [38] 100% | residual activity [39] 100% | residual activity [40] 100% | residual activity [41] 74% | residual activity [42] 80% | residual activity [43] 100% | residual activity [44] 93% | residual activity [45] 100% | residual activity [46] 59%
